According to ChEMBL document CHEMBL3885881, “DrugMatrix”:

Species on record: Rattus norvegicus
Test: DrugMatrix - Regimen: Daily Repeat
Format: toxicity, organism-based, Sprague-Dawley
Parameters: regimen Daily Repeat, gender Male, age 6-8 weeks
Details: in vivo, po, route oral GAVAGE, vehicle 100 % WATER; for ABSOLUTE BASOPHIL / ABSOLUTE EOSINOPHIL / ABSOLUTE LYMPHOCYTE / ABSOLUTE MONOCYTE / ABSOLUTE SEGMENTED NEUTROPHIL / BASOPHIL / EOSINOPHIL / ERYTHROCYTE COUNT / HEMATOCRIT / HEMOGLOBIN / LEUKOCYTE COUNT / LYMPHOCYTE / MEAN CORPUSCULAR HEMOGLOBIN / MEAN CORPUSCULAR HEMOGLOBIN CONCENTRATION / MEAN CORPUSCULAR VOLUME / MONOCYTE / NEUTROPHIL / NUCLEATED RED BLOOD CELLS / PLATELET COUNT: tissue Blood; for ALANINE AMINOTRANSFERASE / ALBUMIN / ALKALINE PHOSPHATASE / ASPARTATE AMINOTRANSFERASE / BLOOD UREA NITROGEN / CARBON DIOXIDE / CHLORIDE / CHOLESTEROL / CREATINE PHOSPHOKINASE / CREATININE / GLUCOSE / LACTATE DEHYDROGENASE / LIPASE / PHOSPHORUS / POTASSIUM / SODIUM / TOTAL BILIRUBIN / TOTAL PROTEIN / URIC ACID: tissue Plasma
[1] = 0 mg/kg, 72 h, dose level Control, time 3 day
[2] = 0 mg/kg, 120 h, dose level Control, time 5 day
[3] = 25 mg/kg, 72 h, dose level High, time 3 day

With O=P1(N(CCCl)CCCl)NCCCO1 (centres undefined) [CYCLOPHOSPHAMIDE ANHYDROUS] the “ABSOLUTE BASOPHIL” value [1] was 0 CELLS/uL, the “ABSOLUTE EOSINOPHIL” value [1] was 32.5 CELLS/uL and the “ABSOLUTE LYMPHOCYTE” value [1] was 9305.83 CELLS/uL. The “ABSOLUTE MONOCYTE” value [1] was 43.83 CELLS/uL, the “ABSOLUTE SEGMENTED NEUTROPHIL” value [1] was 817.83 CELLS/uL and the BASOPHIL [1] was 0%. The EOSINOPHIL [1] was 0.33%, the “ERYTHROCYTE COUNT” value [1] was 5.38 x10E6/uL and the HEMATOCRIT [1] was 33.63%. The HEMOGLOBIN [1] was 13.17 G/DL, the “LEUKOCYTE COUNT” value [1] was 10.2 x10E3/uL and the LYMPHOCYTE [1] was 91.17%. The “MEAN CORPUSCULAR HEMOGLOBIN” value [1] was 24.5 pg, the “MEAN CORPUSCULAR HEMOGLOBIN CONCENTRATION” value [1] was 39.13 G/DL and the “MEAN CORPUSCULAR VOLUME” value [1] was 62.53 fL. For the same compound, the MONOCYTE [1] was 0.5%, the NEUTROPHIL [1] was 8% and the “NUCLEATED RED BLOOD CELLS” value [1] was 0.17 /100WBC. The “PLATELET COUNT” value [1] was 858 x10E3/uL, the “ALANINE AMINOTRANSFERASE” value [1] was 55.67 u/L and the ALBUMIN [1] was 4.07 G/DL. The “ALKALINE PHOSPHATASE” value [1] was 337 u/L, the “ASPARTATE AMINOTRANSFERASE” value [1] was 84 u/L and the “BLOOD UREA NITROGEN” value [1] was 13.17 mg/dL. For the same compound, the “CARBON DIOXIDE” value [1] was 34.17 mmol/L, the CHLORIDE [1] was 99.33 MEQ/L and the CHOLESTEROL [1] was 78.83 mg/dL. For the same compound, the “CREATINE PHOSPHOKINASE” value [1] was 576.83 u/L, the CREATININE [1] was 0.17 mg/dL and the GLUCOSE [1] was 152.67 mg/dL. The “LACTATE DEHYDROGENASE” value [1] was 147.83 u/L, the LIPASE [1] was 9.5 u/L and the PHOSPHORUS [1] was 10.78 mg/dL. For the same compound, the POTASSIUM [1] was 6.34 MEQ/L, the SODIUM [1] was 144.12 MEQ/L and the “TOTAL BILIRUBIN” value [1] was 0.18 mg/dL. For the same compound, the “TOTAL PROTEIN” value [1] was 6.08 G/DL, the “URIC ACID” value [1] was 0.65 mg/dL and the “ABSOLUTE BASOPHIL” value [2] was 0 CELLS/uL. For the same compound, the “ABSOLUTE EOSINOPHIL” value [2] was 31.17 CELLS/uL, the “ABSOLUTE LYMPHOCYTE” value [2] was 7918.33 CELLS/uL and the “ABSOLUTE MONOCYTE” value [2] was 58.33 CELLS/uL. The “ABSOLUTE SEGMENTED NEUTROPHIL” value [2] was 725.5 CELLS/uL, the BASOPHIL [2] was 0% and the EOSINOPHIL [2] was 0.33%. The “ERYTHROCYTE COUNT” value [2] was 5.32 x10E6/uL, the HEMATOCRIT [2] was 33.53% and the HEMOGLOBIN [2] was 13.17 G/DL. The “LEUKOCYTE COUNT” value [2] was 8.73 x10E3/uL, the LYMPHOCYTE [2] was 90.33% and the “MEAN CORPUSCULAR HEMOGLOBIN” value [2] was 24.82 pg. The “MEAN CORPUSCULAR HEMOGLOBIN CONCENTRATION” value [2] was 39.33 G/DL, the “MEAN CORPUSCULAR VOLUME” value [2] was 63.12 fL and the MONOCYTE [2] was 0.67%. For the same compound, the NEUTROPHIL [2] was 8.67%, the “NUCLEATED RED BLOOD CELLS” value [2] was 0 /100WBC and the “PLATELET COUNT” value [2] was 1144.83 x10E3/uL. The “ALANINE AMINOTRANSFERASE” value [2] was 60.5 u/L, the ALBUMIN [2] was 3.97 G/DL and the “ALKALINE PHOSPHATASE” value [2] was 343.17 u/L. For the same compound, the “ASPARTATE AMINOTRANSFERASE” value [2] was 80.83 u/L, the “BLOOD UREA NITROGEN” value [2] was 15 mg/dL and the “CARBON DIOXIDE” value [2] was 31 mmol/L. For the same compound, the CHLORIDE [2] was 99.75 MEQ/L, the CHOLESTEROL [2] was 71.5 mg/dL and the “CREATINE PHOSPHOKINASE” value [2] was 237.17 u/L. For the same compound, the CREATININE [2] was 0.17 mg/dL, the GLUCOSE [2] was 137 mg/dL and the “LACTATE DEHYDROGENASE” value [2] was 146.17 u/L. For the same compound, the LIPASE [2] was 11.5 u/L, the PHOSPHORUS [2] was 10.13 mg/dL and the POTASSIUM [2] was 6 MEQ/L. For the same compound, the SODIUM [2] was 145 MEQ/L, the “TOTAL BILIRUBIN” value [2] was 0.13 mg/dL and the “TOTAL PROTEIN” value [2] was 5.82 G/DL. For the same compound, the “URIC ACID” value [2] was 0.62 mg/dL, the “ABSOLUTE BASOPHIL” value [3] was 0 CELLS/uL and the “ABSOLUTE EOSINOPHIL” value [3] was 0 CELLS/uL. The “ABSOLUTE LYMPHOCYTE” value [3] was 2636 CELLS/uL, the “ABSOLUTE MONOCYTE” value [3] was 11 CELLS/uL and the “ABSOLUTE SEGMENTED NEUTROPHIL” value [3] was 486.33 CELLS/uL. The BASOPHIL [3] was 0%, the EOSINOPHIL [3] was 0% and the “ERYTHROCYTE COUNT” value [3] was 5 x10E6/uL. The HEMATOCRIT [3] was 30.93%, the HEMOGLOBIN [3] was 12.33 G/DL and the “LEUKOCYTE COUNT” value [3] was 3.13 x10E3/uL. For the same compound, the LYMPHOCYTE [3] was 83.67%, the “MEAN CORPUSCULAR HEMOGLOBIN” value [3] was 24.73 pg and the “MEAN CORPUSCULAR HEMOGLOBIN CONCENTRATION” value [3] was 39.87 G/DL. For the same compound, the “MEAN CORPUSCULAR VOLUME” value [3] was 61.97 fL, the MONOCYTE [3] was 0.33% and the NEUTROPHIL [3] was 16%. For the same compound, the “NUCLEATED RED BLOOD CELLS” value [3] was 0 /100WBC, the “PLATELET COUNT” value [3] was 636 x10E3/uL and the “ALANINE AMINOTRANSFERASE” value [3] was 49.33 u/L. The ALBUMIN [3] was 4.03 G/DL, the “ALKALINE PHOSPHATASE” value [3] was 291 u/L and the “ASPARTATE AMINOTRANSFERASE” value [3] was 68 u/L. The “BLOOD UREA NITROGEN” value [3] was 15.67 mg/dL, the “CARBON DIOXIDE” value [3] was 34 mmol/L and the CHLORIDE [3] was 99.5 MEQ/L. The CHOLESTEROL [3] was 84.67 mg/dL, the “CREATINE PHOSPHOKINASE” value [3] was 160 u/L and the CREATININE [3] was 0.13 mg/dL. The GLUCOSE [3] was 147 mg/dL, the “LACTATE DEHYDROGENASE” value [3] was 134 u/L and the LIPASE [3] was 9.67 u/L. The PHOSPHORUS [3] was 10.63 mg/dL, the POTASSIUM [3] was 5.82 MEQ/L and the SODIUM [3] was 144.75 MEQ/L. The “TOTAL BILIRUBIN” value [3] was 0.17 mg/dL, the “TOTAL PROTEIN” value [3] was 5.77 G/DL and the “URIC ACID” value [3] was 0.33 mg/dL.
